Source: US11819021B2, “Peptides and methods and uses thereof for modulating anaphase promoting complex (APC) activity” (University of Saskatchewan, priority 2017, dated 2023)
“Also recorded” adds a separate entry of the source. No end group written: not given here.

Experiments:
[1] = test system: human breast tumor (4-28 PDX); experiment: Tumor growth in mouse model of patient derived triple negative breast cancer (4-28 PDX); assay type: in vivo; conditions: single 25 mg/kg i.p. injection, Doxorubicin resistant TNBC PDX mouse
Method: (§1) A. In vivo study of M2I-1 impact on human breast tumor (4-28 PDX). Single 25 mg/kg i.p. injection (treatment) versus mock (DMSO) day 1, tumor size measured daily. B. Western analysis of apoptosis (PARP cleavage—24 kDa band) and APC substrate abundance (Cyclin B) in liver and tumor of treated and control after sacrifice on Day 6.
(§2) A mouse model for growing patient derived breast tumor cells obtained from a patient with triple negative breast cancer was developed. This patient had developed resistance to Doxorubicin. Tumors growing in these mice grow rapidly. A mouse was injected with 25 mg/kg M2I-1.

HURP = experiment: Western of APC substrates in drug resistant MCF7 cells; assay type: cell-based; conditions: drug resistant human breast cancer cells
Method: (§3) A. Parental MCF7 human breast cancer cells, or cells selected for resistance to Tamoxifen, were treated with 1 or 5 μM M2I-1. Tamoxifen resistant cells were also treated with both Doxorubicin and M2I-1. Trypan Blue. (3 rpts). ND, no data. B. Protein lysates were prepared from the cells used in A. The APC target HURP was measured using antibodies against HURP. C. Trypan Blue was used to measure viability of OSW canine lymphoma cells pretreated with 1 μmol M2I-1 (18 hrs), followed by 1 μmol DOX (48 hrs). Parental cells were only treated with monotherapy (3 rpts). ND, no data. D. OSW matched cells treated with the APC activator M2I-1 were prepared for APC substrate westerns E. Quantification of western protein abundance (3 rpts).
(§4) Drug resistant human breast cancer cells in culture were treated with the M2I-1 activator.

[2] = test system: MCF7 human breast cancer cells selected for resistance to Tamoxifen; experiment: Trypan Blue viability of drug resistant MCF7 breast cancer cells; assay type: cell-based
Method: as §3, §4

Cyclin B = experiment: Western of APC substrate abundance in PDX tumor; assay type: in vivo, mouse; conditions: 25 mg/kg, after sacrifice on Day 6
Method: as §1, §2

[3] = test system: OSW canine lymphoma cells; experiment: Trypan Blue viability of drug resistant OSW lymphoma cells; assay type: cell-based; conditions: OSW dog lymphoma cells selected for drug resistance; 1 μmol M2I-1 (18 hrs) then 1 μmol DOX (48 hrs)
Method: as §3, §4

APC = experiment: Yeast 2-hybrid binding to the APC
From the text: As used herein, the expression “binds to the APC” refers to a peptide that binds to at least one subunit of the APC, for example Apc5 or Apc10. Binding can be measured for example, by any method known in the art, including, but not limited to a yeast 2-hybrid assay.
(§5) The reverse genetic screen utilized a yeast 2-hybrid (Y2H) protocol that selected for peptides that bound to the APC subunits Apc5 or Apc10 (see FIG. 5 for APC structure), to assess whether peptide-binding might modify APC function. Peptides that bound APC subunits were then assayed for those that suppressed APC mutant defects.
(§6) Random small peptides were cloned into the TrxA scaffold (library provided by R. Geyer, U of S) and expressed from a galactose-inducible Y2H prey vector in cells harboring either APC5 or APC10 Y2H bait vectors (APC5/APC10 bait constructs complement APC mutant defects).

Cin5 = target: T1, Cin5 (Saccharomyces cerevisiae, UniProt P40917); experiment: Yeast 2-hybrid with Y65 bait to identify binding partners
T1 construct: expressed in transfected cells; host or cells: yeast Y2H cells
T1 sequence (P40917 1-295): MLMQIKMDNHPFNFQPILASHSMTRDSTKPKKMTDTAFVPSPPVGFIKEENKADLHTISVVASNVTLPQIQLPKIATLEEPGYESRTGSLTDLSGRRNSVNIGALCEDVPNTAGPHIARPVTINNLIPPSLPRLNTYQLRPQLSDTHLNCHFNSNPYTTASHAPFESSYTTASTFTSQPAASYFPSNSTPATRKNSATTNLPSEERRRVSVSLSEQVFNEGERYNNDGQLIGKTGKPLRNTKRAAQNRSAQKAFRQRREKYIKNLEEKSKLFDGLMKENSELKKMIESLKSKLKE
From the text: One peptide in particular, Y65, was of interest because it had homology to Elongin C (Elc1; Y65 is 20 amino acids in length, with a 7 residue stretch sharing 86% identity and 100% similarity with Elc1). Elc1 is a ubiquitin-protein ligase (E3) conserved among eukaryotes that is involved in DNA repair (Harreman et al, 2009; Ribar et al, 2007). To identify what the peptides bound in order to modify APC activity, Y65 was cloned into the Y2H bait vector and used to identify binding partners.

[4] = test system: apc5^CA temperature sensitive mutant; experiment: Forward genetic screen: rescue of apc5^CA temperature sensitive growth; assay type: cell-based, yeast
From the text: Using a forward genetic screen to test whether temperature sensitive (ts) APC mutants expressing random small peptides could grow at restrictive temperatures, millions of small peptides were rapidly screened for those that could restore mutant APC phenotypes. Peptides that rescued the apc5^CA ts (temperature sensitive) defect were recovered including peptides Y65 and Y36.
In the forward screens, with galactose-inducible TrxA-based peptide libraries, in cells harboring the apc5^CA ts allele, over 200 peptides (from millions screened) suppressed the ts phenotype. Several recovered plasmids were sequenced.

[5] = test system: wild type (WT) yeast cells; experiment: Spot dilution growth and stress resistance of wild type yeast cells expressing peptides; assay type: cell-based
Method: (§7) A. apc5^CA (temperature sensitive allele) cells were transformed with C43-4, C2-4B or an empty vector. Cells grown overnight in 2% Glu were struck onto 2% Glucose plates and used for the yeast replicative lifespan (RLS) assay. B. Wild type (WT) cells transformed with C43-4, C2-4B or an empty vector were grown to stationary phase in 2% Glu media, then after 2 days spot diluted onto 2% Glu or 2% Gal to induce expression of the aptamers.
The cells were exposed to 5 sec of UV from a UV box prior to incubation. The plus signs define growth compared to the empty vector control.
(§8) The six peptide expressing vectors were transformed into apc10Δ cells and assessed for temperature sensitive growth. Two of the peptides, C43-4 and C2-4B, suppressed the apc10Δ growth phenotype at 30 and 34° C. (FIG. 1B-D). […] However, C43-4 and C2-4B increased replicative and chronological lifespan in both apc5^CA and WT cells, respectively (FIG. 2A). […] H2O2 induces oxidative stress whereas galactose induces a carbon stress.
These cells were spot diluted on Trp-plates and grown at the temperatures shown and/or exposed to ultraviolet (UV) irradiation (FIG. 11). At low level expression on glucose, some of the mutations caused stress dependent phenotypes.
Methods • 1. Cells were cultured overnight in Trp-2% glucose media • 2. The growth of the cells was determined by measuring the optical density (OD) of the cells at 600 nm (OD600) • 3. Cells were diluted to OD600 of 1 with fresh culture media • 4. 100 ul of each culture was pipetted into a well of a 96 well plate • 5. 10 ul of the each starting culture was pipetted into 90 ul of water in 4 additional wells to make a 10-fold serial spot dilution • 6. 5 ul from each serial dilution was spotted onto plates containing standard growth media with either 2% glucose or 2% galactose using a multi-pipettor • 7. The plates were exposed to UV • 8. The plates were then placed at room temperature, 30, 34 or 37° C. for 3-7 days • 9. The plates were scanned and saved as tiff files

[6] = test system: APC mutant (apc5 temperature sensitive mutant and/or apc10Δ mutant); experiment: Viability/growth of APC mutant yeast cells; assay type: cell-based
Method: (§9) A. apc5^CA cells expressing small peptides were assayed for replicative life span (RLS). B. Cells expressing HTZ1 were grown under stress conditions. HTZ1 expression, even at low levels, suppresses apc5^CA and apc10Δ defects. The cells shown were transformed with either an empty vector or GAL inducible HTZ1. On 2% glucose, the construct is weakly expressed, and this is enough to increase growth of APC mutants at 30° C.
Examples of yeast cells with defective anaphase promoting complex (APC) function include apc5 and apc10 mutants. An example of an apc5 mutant is the apc5 temperature sensitive mutant described herein. An example of an apc10 mutant is the apc10 deletion mutant described herein.
as §5
(§10) Over 100 peptides that bound either Apc5 or Apc10 were recovered from millions screened. Six peptides that reproducibly interacted with the Apc10 bait construct in Y2H assays were examined further. Vectors expressing these 6 peptides were transformed into APC mutant cells and assessed for ts growth.

Securin = experiment: Western of APC substrate in transformed wheat embryos; assay type: cell-based
Method: (§11) A. Wheat embryos were transformed with an expression vector harboring the C43-4-HA peptide fused to the red fluoresce protein (RFP), or an RFP empty vector, using a ballistic shotgun approach. Embryos were imaged using fluorescence to view RFP. B. Protein lysates were prepared from the transformed embryos and subjected to western analyses using antibodies against the APC substrate Securin. A nonspecific protein band is used to control for protein load.
APC targets APC substrates for degradation such that the relative levels provides an indication of APC activity in a cell. For example, if the substrates are reduced, without being bound by any theory, it is believed to mean that the APC is working better.

WT cells = experiment: Chronological lifespan of WT yeast cells; assay type: cell-based
Method: as §7, §8

Apc10 = target: T2, Apc10 (Saccharomyces cerevisiae, UniProt P53068); experiment: Yeast 2-hybrid (Y2H) binding of peptide prey to Apc10 bait; conditions: galactose-inducible Trx-scaffold peptide prey
T2 construct: expressed in transfected cells; host or cells: yeast Y2H cells
T2 sequence (P53068 1-250): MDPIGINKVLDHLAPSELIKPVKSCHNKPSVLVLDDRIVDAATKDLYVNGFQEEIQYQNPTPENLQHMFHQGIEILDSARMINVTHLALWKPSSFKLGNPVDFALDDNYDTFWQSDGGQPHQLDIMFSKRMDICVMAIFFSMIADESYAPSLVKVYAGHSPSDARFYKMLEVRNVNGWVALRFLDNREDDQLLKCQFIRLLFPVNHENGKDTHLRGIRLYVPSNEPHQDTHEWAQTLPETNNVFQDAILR
Method: as §5
A library of random small peptides were cloned into a Thioredoxin (Trx) scaffold (see FIG. 6 for Trx-aptamer structure) and expressed from a galactose-inducible Y2H prey vector in cells expressing the Apc10 bait vector (the modified Apc10 is still part of the complete APC complex). Six peptides that reproducibly interacted with the Apc10 bait construct in Y2H assays were identified (FIG. 1A) and were examined further.
as §6, §10

wheat embryos = experiment: Expression of C43-4 in wheat embryos: localization and germination; assay type: in vivo; conditions: versus empty vector controls
Method: as §11
C43-4 was subcloned into a plant vector and expressed in wheat embryos.
The wheat embryos (scutella) were transformed using a Biolistics-mediated transformation of wheat embryos. Wheat embryos were inoculated with Agrobacterium harbouring an RFP expression vector. Following inoculation with Agrobacterium, embryos were placed on a medium that allows for growth of both the embryos and the Agrobacterium. Timentin was used for killing remaining A. tumefaciens cells after co-cultivation.
Germination rate was determined as a function of time to observe growth from the embryo and on average, the transformed embryos containing the peptide germinated before empty vector controls. […] Accordingly, the Htz1-like peptide (C43-4) activates the APC in plants.

apc5^CA cells = experiment: Yeast replicative lifespan (RLS) assay; assay type: cell-based
Method: as §7, §9

apc10Δ cells = experiment: Spot dilution growth of apc10Δ cells expressing peptides; assay type: cell-based, yeast; conditions: 30 and 34° C.
From the text: A. Y2H cells expressing the APC subunit bait and the galactose inducible Apc10 peptide prey grown on glucose or galactose. Cells co-expressing the Apc5 or Apc10-bait and Apc10 aptamer-prey vectors were spotted onto the appropriate media, in the presence or absence of galactose (the aptamers are Gal inducible), to confirm 2-hybrid interactions. Growth on trp-his-media ensures both plasmids are maintained. A 2-hybrid interaction will drive expression of the ADE2 gene, allowing growth on ade-media. B. Aptamers that bind Apc10 can suppress APC mutant phenotypes. Spot dilutions of apc10Δ cells expressing an empty vector control or the one of 6 Apc10 aptamers tested. Log phase cells were 10-fold serially diluted and spotted onto plates containing either 2% glucose or 2% galactose. The plates were then incubated at 30° C. (permissive temperature) and 34° C. (restrictive stress). C. Peptides identified as binding to the yeast Apc10 APC subunit using the yeast 2-hybrid screen increase growth of cells on stress conditions. A series of APC binding peptides were transformed into wild type yeast cells, spot diluted, and grown at 30° C. on media supplemented with the normal carbon source (2% glucose). Alternatively, cells were grown on media supplemented with 2% galactose to induce a carbon stress. D. Peptides were expressed in apc5^ts temperature sensitive cells and grown on glucose or galactose media at 30° C.
The cells were exposed to 5 sec of UV from a UV box prior to incubation.
The six peptide expressing vectors were transformed into apc10Δ cells and assessed for temperature sensitive growth. Two of the peptides, C43-4 and C2-4B, suppressed the apc10Δ growth phenotype at 30 and 34° C. (FIG. 1B-D). […]
Over 100 peptides that bound either Apc5 or Apc10 were recovered from millions screened. […] Vectors expressing these 6 peptides were transformed into APC mutant cells and assessed for ts growth.
Methods • 1. […] The growth of the cells was determined by measuring the optical density (OD) of the cells at 600 nm (OD600) • 3. […]

## CC(C)CN(CC(C)C)c1ccc(C=C2C(=O)NC(=S)NC2=O)cc1[N+](=O)[O-] [M2I-1, Mad2 Inhibitor-1]
[1]
  Tumor growth: stalled
HURP
  Levels of APC substrates: reduced
[2]; 1 or 5 μM, 18 hrs, Trypan Blue
  Growth / toxicity of activator alone in drug resistant breast cancer cells: did not impair the growth; also recorded: not toxic
[2]; Tamoxifen resistant MCF7 cells
  Cell killing / toxicity in combination with chemotherapy (Doxorubicin): only in the presence of M2I-1 were cells killed; also recorded: enhances toxicity
Cyclin B
  Markers of APC substrates in the tumor: positive for APC activation
[3]
  Cell killing in combination with chemotherapy: only in the presence of M2I-1 were cells killed

## VRQKSDKEYERVLGLGLRRL [Y65, Peptide with homology to Elc1]
APC
  Binding to the APC in a yeast 2HY assay: not bind the APC in a yeast 2HY
Cin5
  Interaction with Cin5 in a yeast 2 hybrid assay: One peptide binding partner was isolated, Cin5; also recorded: Interacts with Cin5 in a yeast 2
[4]
  apc5^CA temperature sensitive (ts) growth / viability of an apc5 temperature sensitive mutant: increases the viability; also recorded: rescued; also recorded: Rescues apc5^CA temperature

## NGSSHNDLRVRRLTLISRLC (also: expressed in thioredoxin scaffold) [C43-4, Peptide aptamer expressed from Thioredoxin scaffold; residues 2-14 homologous to Htz1]
[5]; 30° C.
  Log phase growth of wild type (WT) cells: Neither C43-4 nor C2-4B influenced
[5]; WT cells on glucose, temperature and/or UV stress, versus empty vector
  Stress resistance at low level expression: increased stress resistance
[5]; overexpressed, H2O2 oxidative stress, galactose carbon stress
  Stress resistance when overexpressed in WT yeast cells: increased stress resistance
[6]
  Viability of an APC mutant: increases the viability
Securin
  Level of tested APC substrate in the embryo: reduced level
WT cells
  Chronological lifespan: increased
Apc10
  Binds Apc10 in a yeast 2 hybrid assay: Binds Apc10
Wheat embryos
  Germination of transformed wheat embryos: germinated faster
apc5^CA cells
  Replicative lifespan: increased
apc10Δ cells
  apc10Δ growth phenotype: suppressed
